In US20220153732A1, “PROTEIN SECRETION INHIBITORS” (KEZAR LIFE SCIENCES, priority 2019, published 2022):
Like-named read-outs stand apart in the source and are kept apart here.

Columns and labels:
Assay type in all cases: cell-based
[1] = tested on: PD1-ss+10aa/Gaussia Luciferase; assay: Dox-Induced PD1-ss-Gluc Assay; conditions: 293FRT/TO cells, read-out: 24 hr Dox Inducible PD1ssGluc 293FRT/TO: Mean IC50
Description: (§1) Transfected cells were selected for resistance to the selectable markers Hygromycin and Blasticidin to create a stable cell line that contained the PD1-ss+10aa/Gaussia Luciferase cDNA insert whose expression was regulated under the T-REx™ system. The day before assay, cells were trypsinized and plated in 384-well tissue culture plates. The next day, compound dilutions in DMSO/media containing doxycycline were added to the wells and incubated at 37° C., 5% CO2.
(§2) For chemical structures that include one or more stereoisomers, but are illustrated without indicating stereochemistry, the assay data refers to a mixture of stereoisomers.

[2] = tested on: TNFα-FL/Gaussia Luciferase; assay: Dox Induced TNFα-FL-Gluc Assay; conditions: 293FRT/TO cells, read-out: 24 hr Dox Inducible TNFaFLGluc 293FRT/TO: Mean IC50
Description: as §1, with “TNFα-FL/Gaussia” for “PD1-ss+10aa/Gaussia”, “T-RExTM” for “T-REx™”, “CO2. […] For chemical structures that include one or more stereoisomers, but are illustrated without indicating stereochemistry, the assay data refers to a mixture of stereoisomers.” for “CO2.”

[3] = tested on: HER3-ss+4aa/Gaussia Luciferase; assay: Dox-Induced Her3-ss-Gluc Assay; conditions: 293FRT/TO cells, read-out: 24 hr Dox Inducible Her3(ss + 4)Gluc 293FRT/TO: Mean IC50
Description: as §1, with “HER3-ss+4aa/Gaussia” for “PD1-ss+10aa/Gaussia”
as §2

[4] = tested on: IL-2-FL/Gaussia Luciferase; assay: Dox Induced IL2-FL-Gluc Assay; conditions: 293FRT/TO cells, read-out: 24 hr Dox Inducible IL2FLGIuc 293FRT/TO: Mean IC50
Description: as §1, with “IL-2-FL/Gaussia” for “PD1-ss+10aa/Gaussia”, “T-RExTM” for “T-REx™”, “CO2. […] For chemical structures that include one or more stereoisomers, but are illustrated without indicating stereochemistry, the assay data refers to a mixture of stereoisomers.” for “CO2.”

[5] = tested on: human multiple myeloma cell line NCI-H929; assay: H929 Cell Viability Assay; conditions: 48 hr, NCI-H929 cells, Celltiter-Glo, read-out: 48 hr H929 Viability Celltiter-Glo: Mean EC50
Description: (§3) Plates were incubated at 37° C., 5% CO2 for 48 hours. After 48 hours, Celltiter-Glo® (Promega) was added to each well and luciferase signal was quantified using Tecan Infinite M1000 Pro for cell viability determination.
as §2

[6] = tested on: human multiple myeloma cell line U266B1; assay: U266 Cell Viability Assay; conditions: U-266, 48 hr, U266B1 cells, Celltiter-Glo, read-out: 48 hr U266 Viability Celltiter-Glo: Mean EC50
Description: as §3, with “Cells were plated in 384-well tissue culture plates and treated with compound dilutions in DMSO/media. Plates” for “Plates”
as §2

[7] = 24 hr doxycycline induction, Gaussia luciferase signal

| Compound | IC50 [1, 7] [µM] | IC50 [2, 7] [µM] | IC50 [3, 7] [µM] | IC50 [4, 7] [µM] | EC50 [5] [µM] | EC50 [6] [µM] | IC50 ([1]; 24 hr, doxycycline-induced) [µM] | IC50 ([2]; 24 hr, doxycycline-induced) [µM] | IC50 ([3]; 24 hr, doxycycline-induced) [µM] | IC50 ([4]; 24 hr, doxycycline-induced) [µM] |
| --- | --- | --- | --- | --- | --- | --- | --- | --- | --- | --- |
| Cc1sc(NC(=O)c2cccn2Cc2ccncc2)nc1C(C)(C)OC(C)C [Compound A37, N-(4-(2-isopropoxypropan-2-yl)-5-methylthiazol-2-yl)-1-(pyridin-4-ylmethyl)-1H-pyrrole-2-carboxamide] | 0.703 | 12.1 | 1.24 | 1.07 | > 25 | > 25 | – | – | – | – |
| CC(C)OC(C)(C)c1csc(NC(=O)c2cccn2Cc2ccccc2Cl)n1 [Compound A78] | 3.16 | > 25 | 7.88 | 6.38 | 20.9 | > 25 | – | – | – | – |
| O=C(Nc1ncc(Cc2ccccc2)s1)c1cccn1Cc1ccncc1 [Compound A34, N-(5-benzylthiazol-2-yl)-1-(pyridin-4-ylmethyl)-1H-pyrrole-2-carboxamide] | 0.674 | > 25 | 2.42 | 4.24 | > 25 | > 25 | – | – | – | – |
| CCc1nc(NC(=O)c2cccn2Cc2ccccc2)sc1C [Compound B9, 1-benzyl-N-(4-ethyl-5-methylthiazol-2-yl)-1H-pyrrole-2-carboxamide] | – | – | – | – | > 25 | > 25 | 9.43 | > 25 | > 25 | > 25 |
| Cc1cc(C(=O)Nc2nc(C(C)(C)OC(C)C)cs2)n(Cc2ccncc2)c1 [Compound A48, N-(4-(2-isopropoxypropan-2-yl)thiazol-2-yl)-4-methyl-1-(pyridin-4-ylmethyl)-1H-pyrrole-2-carboxamide] | 1.19 | > 25 | 2.69 | 2.22 | > 25 | > 25 | – | – | – | – |
| O=C(Nc1nc(C2[C@@H](O)CCN2c2ccccc2)cs1)c1cccn1Cc1ccncc1 (stereo partly drawn) [Compound A344] | – | – | – | – | > 25 | > 25 | 0.971 | 8.86 | 2.03 | 1.35 |
| O=C(Nc1nc(N2CCCC(c3ccccc3)C2)cs1)c1cccn1Cc1ccncc1 (stereo not drawn) [Compound A265] | 9.06 | > 25 | > 25 | 7.3 | > 25 | > 25 | – | – | – | – |
| O=C(Nc1nc(/C=C/c2ccccc2)cs1)c1cccn1CCCc1ccncc1 [Compound A33, 1-(3-(pyridin-4-yl)propyl)-N-(4-styrylthiazol-2-yl)-1H-pyrrole-2-carboxamide] | 0.663 | > 25 | 1.62 | 2.47 | 8.99 | 6.89 | – | – | – | – |
| O=C(Nc1nc(C2CCN(c3ccccc3)CC2)cs1)c1cccn1CCCc1ccncc1 [Compound A285] | 1.23 | 16.1 | 1.84 | 2.86 | 17.8 | 16.7 | – | – | – | – |

More lines, now with the values ahead:

| IC50 [1, 7] [µM] | IC50 [2, 7] [µM] | IC50 [3, 7] [µM] | IC50 [4, 7] [µM] | EC50 [5] [µM] | EC50 [6] [µM] | IC50 ([1]; 24 hr, doxycycline-induced) [µM] | IC50 ([2]; 24 hr, doxycycline-induced) [µM] | IC50 ([3]; 24 hr, doxycycline-induced) [µM] | IC50 ([4]; 24 hr, doxycycline-induced) [µM] | Compound |
| --- | --- | --- | --- | --- | --- | --- | --- | --- | --- | --- |
| – | – | – | – | > 25 | > 25 | 22.7 | > 25 | 5.57 | > 25 | CC(C)(C)c1csc(NC(=O)c2cccn2Cc2ccccc2Cl)n1 [Compound B11, N-(4-(tert-butyl)thiazol-2-yl)-1-(2-chlorobenzyl)-1H-pyrrole-2-carboxamide] |
| 0.244 | 1.95 | 0.817 | 1.16 | 11 | > 25 | – | – | – | – | O=C(Nc1nc(C2Cc3ccccc3C2)cs1)c1cccn1Cc1ccncc1 [Compound A281] |
| 0.232 | 15.9 | 2.14 | 4.37 | > 25 | > 25 | – | – | – | – | O=C(Nc1nc(/C=C/C2CCCCO2)cs1)c1cccn1Cc1ccncc1 (stereo not drawn) [Compound A155, 1-(pyridin-4-ylmethyl)-N-(4-(2-(tetrahydro-2H-pyran-2-yl)vinyl)thiazol-2-yl)-1H-pyrrole-2-carboxamide] |
| 1.46 | 24.2 | 3.14 | 3.12 | > 25 | > 25 | – | – | – | – | CC(C)(CCc1ccccn1)c1csc(NC(=O)c2cccn2Cc2ccncc2)n1 [Compound A262] |
| > 25 | > 25 | > 25 | 7.27 | > 25 | > 25 | – | – | – | – | CC(C)OC(C)(C)c1csc(NC(=O)c2nccn2Cc2ccncc2)n1 [Compound A108, N-(4-(2-isopropoxypropan-2-yl)thiazol-2-yl)-1-(pyridin-4-ylmethyl)-1H-imidazole-2-carboxamide] |
| 0.303 | 11.7 | 0.619 | 0.477 | > 25 | > 25 | – | – | – | – | Cc1cnccc1Cn1cccc1C(=O)Nc1nc(C(C)(C)OC(C)C)cs1 [Compound A24, N-(4-(2-isopropoxypropan-2-yl)thiazol-2-yl)-1-((3-methylpyridin-4-yl)methyl)-1H-pyrrole-2-carboxamide] |
| – | – | – | – | > 25 | > 25 | 0.655 | 10.3 | 1.21 | 1.15 | O=C(Nc1nc(C2COc3ccccc3C2)cs1)c1cccn1Cc1ccncc1 (stereo not drawn) [Compound A296] |
| – | – | – | – | > 25 | > 25 | 3.24 | > 25 | 12.6 | 10.6 | CC(C)c1coc(NC(=O)c2cccn2Cc2ccncc2)n1 [Compound B5, N-(4-isopropyloxazol-2-yl)-1-(pyridin-4-ylmethyl)-1H-pyrrole-2-carboxamide] |
| > 25 | > 25 | > 25 | > 25 | > 25 | > 25 | – | – | – | – | CC(=O)N1CCC(Cn2cccc2C(=O)Nc2nc(C(C)(C)OC(C)C)cs2)CC1 [Compound A128, 1-((1-acetylpiperidin-4-yl)methyl)-N-(4-(2-isopropoxypropan-2-yl)thiazol-2-yl)-1H-pyrrole-2-carboxamide] |
| – | – | – | – | 1.31 | > 25 | 0.018 | 0.226 | 0.029 | 0.013 | O=C(Nc1nc([C@H]2CC(F)(F)CN2c2ccccc2)cs1)c1cccn1Cc1ccncc1 [Compound A339] |
| 3.18 | 22.2 | > 25 | 14.1 | 9.06 | 17.5 | – | – | – | – | CC(=O)N(C)c1ccc(/C=C/c2csc(NC(=O)c3cccn3Cc3ccncc3)n2)cc1 [Compound A245] |
| 0.271 | 8.83 | 0.503 | 0.46 | > 25 | > 25 | – | – | – | – | CC1(C)CCc2sc(NC(=O)c3cccn3Cc3ccncc3)nc21 [Compound A22, N-(4,4-dimethyl-5,6-dihydro-4H-cyclopenta[d]thiazol-2-yl)-1-(pyridin-4-ylmethyl)-1H-pyrrole-2-carboxamide] |
| 1.57 | > 25 | 3.75 | 2.69 | > 25 | > 25 | – | – | – | – | O=C(Nc1nc2ccsc2s1)c1cccn1Cc1ccncc1 [Compound A60] |
| – | – | – | – | > 25 | > 25 | > 25 | > 25 | > 25 | > 25 | CCc1nc(NC(=O)[C@H]2CCCN2Cc2ccncc2)sc1C [Compound B24] |
